The data set in a line: Human HepG2 cell viability assay in 384 well format. The data set is classed as toxicity, cell-based. Also noted: dose 125 nL, time 70.5 hour; cytotoxicity at 70.5 h: concentration not given beside the values. As to conditions: HepG2 cells, read-out: Inhibition.
As for `CN1CCN(C(=O)c2ncn3c2CNS(=O)(=O)c2ccccc2-3)CC1`, the cytotoxicity at 70.5 h was 1.85%.

For the compound `CN(Cc1noc2c1CCCC2)C(=O)C1CCOc2ccccc2C1` (centres undefined), the cytotoxicity at 70.5 h is -3.46%.

Consider `CSCC(=O)N1C[C@H]2CC[C@@H]1CN(Cc1ccccc1)C2`, for which the cytotoxicity at 70.5 h was -3.17%.

In the case of `CN(Cc1ccsc1)C(=O)Nc1cccc(N2CCOC2=O)c1`, the cytotoxicity at 70.5 h was found to be 26.8%.

Regarding `Cc1ccc(-n2cc(C(=O)N3CCCC(n4cccn4)C3)nn2)cc1` (centres undefined), the cytotoxicity at 70.5 h is -5.27%.

In the case of `COC[C@@H]1CCC[C@@]12CN(Cc1ccc(C)s1)CCO2`, the cytotoxicity at 70.5 h came to 48.9%.

For the compound `Cc1cnn(CC2CC2)c1NC(=O)c1cccnc1O`, the cytotoxicity at 70.5 h is 14.4%.

With `COc1cccc(CC(=O)N2CC[C@@H]3CN(C)S(=O)(=O)[C@@H]3CC2)c1`, the cytotoxicity at 70.5 h was -3.48%.

`Cc1ncsc1CCN(C)C(=O)CCc1nc2cccnc2n1C`: the cytotoxicity at 70.5 h was -11.9%.

For `O=C([C@@H]1Cc2[nH]cnc2CN1CC1CC1)N1CCCC1`, the cytotoxicity at 70.5 h was 9.33%.

Consider `CCN1CC2(CC1=O)CN(Cc1ccco1)CCN(C(=O)N(C)C)C2` (centres undefined), for which the cytotoxicity at 70.5 h is -8.06%.

For `CN(C)CCN1C(=O)CCCC12CCCN(Cc1ccc[nH]1)C2` (centres undefined), the cytotoxicity at 70.5 h worked out at 26%.

Turning to `Cc1ccc(Oc2c(F)cccc2OC[C@@H](N)CC(C)C)cc1`, the cytotoxicity at 70.5 h was determined as 23.8%.

Turning to `CCc1cccc(-n2nnc(C(=O)O)c2-c2ccncc2)c1`, the cytotoxicity at 70.5 h was -13.1%.

In the case of `CCOc1ccc(C(=O)CCC(=O)NCCc2nncn2CC)cc1C`, the cytotoxicity at 70.5 h amounted to 22.5%.

Turning to `CNS(=O)(=O)c1cccc(CNC(=O)c2cnn(C)c2C)c1`, the cytotoxicity at 70.5 h was -11.8%.

For the compound `O=c1[nH]nc(CNCc2ccc(OC34CCCN(CC3)C4)cc2)[nH]1` (centres undefined), the cytotoxicity at 70.5 h was -4.91%.

Consider `O=c1cc(Cn2ccnc2)nc2n1CCCN(Cc1cccs1)C2`, for which the cytotoxicity at 70.5 h was -16.6%.

With `COC(=O)c1ccc(Cl)c(S(=O)(=O)Nc2ccc(F)c(C(N)=O)c2)c1`, the cytotoxicity at 70.5 h is -14.5%.

Regarding `Cc1cc(C(F)(F)F)nc(C2CCN(C(=O)CO)CC2)n1`, the cytotoxicity at 70.5 h was -6.47%.

As to `Cc1cc(NC(=O)C(C)NCCn2cccn2)no1` (centres undefined), the cytotoxicity at 70.5 h is -0.681%.

Consider `CN1CCCN(c2cnn(Cc3ccc(C(C)(C)C)cc3)c(=O)c2)CC1`, for which the cytotoxicity at 70.5 h was -8.93%.

`O=C(C1CC1)N1CC[C@H](c2nnc(-c3ccccc3F)o2)C1`: the cytotoxicity at 70.5 h is -7.55%.

For `CC1(c2nccs2)CCN(C(=O)CC2CCOCC2)CC1`, the cytotoxicity at 70.5 h is -9.57%.

In the case of `Cc1ccc(C)c2c(C)c(C(=O)NCCCn3cnnc3)[nH]c12`, the cytotoxicity at 70.5 h was -6.86%.

For `CN(CC1CCN(CCO)CC1)CC(O)c1ccc(F)c(F)c1` (centres undefined), the cytotoxicity at 70.5 h was determined as 7.09%.

For `O=C(Cc1ccc(O)cc1)N1CCCC(O)(CN2CCOCC2)CC1` (centres undefined), the cytotoxicity at 70.5 h is -7.8%.

With `Cc1ccncc1NC(=O)C1CSc2ncc(C)c(=O)n2C1` (centres undefined), the cytotoxicity at 70.5 h is 18.9%.

For `NCC1Cc2cc(-c3cncc(C(=O)N4CCCCC4)n3)cc(F)c2O1` (centres undefined), the cytotoxicity at 70.5 h is -4.24%.

Regarding `O=C(CN1CCOc2ccccc2C1)NCc1cc2n(n1)CCCNC2`, the cytotoxicity at 70.5 h was -2.45%.

With `CS(=O)(=O)Cc1ccc(C(=O)NCc2ccc(Cl)cc2Cl)cc1`, the cytotoxicity at 70.5 h was -6.11%.

For the compound `CC1CN(Cc2cccnc2)CCN1c1ccc2nncn2n1` (centres undefined), the cytotoxicity at 70.5 h is -8.86%.

Take `Cc1cc(C)n(CC2CN(Cc3cccnc3)CCO2)n1` (centres undefined): the cytotoxicity at 70.5 h came to 3.35%.

As to `CCCNC(=O)[C@@H]1CCCN1[C@@H](C(=O)NC)C1CC1`, the cytotoxicity at 70.5 h is -11.8%.

Take `Cc1nc(C(C)C)sc1C(=O)N1CCC(C(N)=O)CC1`: the cytotoxicity at 70.5 h amounted to 6%.

As to `CCOc1ccc(-c2c(-c3ccccc3)ncn2C2CCNC2)cn1` (centres undefined), the cytotoxicity at 70.5 h was -12.8%.

`COc1ccnc(N2CCC(OCCN3CCCCC3)C2)n1` (centres undefined): the cytotoxicity at 70.5 h was -2.49%.

Regarding `COc1ccccc1NC(=O)NCCCC(=O)Nc1cn[nH]c1`, the cytotoxicity at 70.5 h was found to be 13.3%.

For the compound `Cn1c2ccccc2c2ncn(CCN3CCOCC3)c(=O)c21`, the cytotoxicity at 70.5 h worked out at 11.8%.

Regarding `O=C1OCCN1CCNc1ncc2c(n1)CCN2c1ccccc1`, the cytotoxicity at 70.5 h was -6.11%.

As for `CN(Cc1ccno1)c1nc(C2CCCC2)nc2c1cnn2C`, the cytotoxicity at 70.5 h was -2.09%.

In the case of `CCn1c(NCc2ccccn2)nc2c(C)nn(C)c2c1=O`, the cytotoxicity at 70.5 h is -3.41%.

In the case of `O=C(O)C(c1ccc2c(c1)OCO2)N1CCCC1` (centres undefined), the cytotoxicity at 70.5 h was -0.492%.

As for `CC(c1cc(F)ccc1F)N1CCN(C(=O)c2ccc(=O)[nH]c2)CC1` (centres undefined), the cytotoxicity at 70.5 h was -1.22%.

`O=C1CC2(CCN(C(=O)c3csc(-c4ccccc4)n3)C2)C(=O)N1` (centres undefined): the cytotoxicity at 70.5 h was -5.85%.

Take `CCC(C(=O)N(C)Cc1cc(COC)[nH]n1)n1cccn1` (centres undefined): the cytotoxicity at 70.5 h was -11.5%.

On to `O=C(Cc1ccc2c(c1)CCO2)N1CCCC1Cn1cccn1` (centres undefined), for which the cytotoxicity at 70.5 h was -4.67%.

For `Cc1ccc(C(=O)N2CCOC3(CCCC3)C2)c(=O)[nH]1`, the cytotoxicity at 70.5 h was -41.7%.

Regarding `CCNC(=O)N1CC[C@H]2CC(=O)N(CCN3CCNC3=O)CC[C@H]2C1`, the cytotoxicity at 70.5 h is -3.51%.

`Cc1cc(C(=O)NCC2COCc3c(C)nnn3C2)no1` (centres undefined): the cytotoxicity at 70.5 h was -6.83%.

For `O=C(c1cccnc1N1CCCCC1)N1CCCC(n2cccn2)C1` (centres undefined), the cytotoxicity at 70.5 h amounted to 15.6%.

For `COc1cc(CNc2cc(-c3ccoc3C)nn2CCO)ccc1F`, the cytotoxicity at 70.5 h worked out at 11.9%.

In the case of `Cc1cccc(CN2CCC3(CCCN(C(=O)NC4CC4)C3)C2=O)n1` (centres undefined), the cytotoxicity at 70.5 h is 25.5%.

For `CN1CCC(CCNC(=O)c2ccc(N(C)S(C)(=O)=O)cc2Cl)CC1`, the cytotoxicity at 70.5 h was -7.69%.

`CN(C)C(=O)CN1CCCC12CCCN(c1ncc(F)cn1)C2` (centres undefined): the cytotoxicity at 70.5 h is -4.71%.

Regarding `CCn1cc(NC(=O)C2CCC(=O)N2Cc2ccc(C)o2)cn1` (centres undefined), the cytotoxicity at 70.5 h was -2.42%.

For `Cc1nc(S(=O)(=O)N2CCC3(CCCCC3)C2)cn1C`, the cytotoxicity at 70.5 h was -1.45%.

For `CCN(CCN1CCOCC1)C(=O)c1cccnc1`, the cytotoxicity at 70.5 h was 4.89%.

As for `Cn1cnnc1-c1ccnc(NCc2ccc(Br)cc2)c1`, the cytotoxicity at 70.5 h was -4.99%.

`CCn1c(NCc2ccc(OC)cc2)nc2c(C)nn(C)c2c1=O`: the cytotoxicity at 70.5 h is -6.73%.

On to `COc1ncccc1CNCc1c(C)nn(C)c1N1CCOCC1`, for which the cytotoxicity at 70.5 h was -12.3%.

As for `Cc1ncsc1CCN(C)C(=O)CN1C(=O)OC[C@@H]1c1ccccc1`, the cytotoxicity at 70.5 h was 4.46%.

On to `Cc1nc(CNCc2c(C(C)C)nn(C)c2N2CCOCC2)cs1`, for which the cytotoxicity at 70.5 h was -7.63%.

In the case of `CNC(=O)[C@@]12CCO[C@@H]1CCN(Cc1cccc(C)c1)C2`, the cytotoxicity at 70.5 h is -12.5%.

As for `Cn1cc(CN2CCC(c3ncc(Cl)cc3S(C)(=O)=O)CC2)cn1`, the cytotoxicity at 70.5 h was -6.32%.

In the case of `Cc1cc(C[S+]([O-])Cc2ccccc2C)no1` (centres undefined), the cytotoxicity at 70.5 h is -8.16%.

In the case of `COc1ccccc1CC1CCCN(CCC(N)=O)C1` (centres undefined), the cytotoxicity at 70.5 h is 5.7%.

Consider `CCc1nccn1C1CCCN(C(=O)c2ccnc(C)n2)C1` (centres undefined), for which the cytotoxicity at 70.5 h is -7.48%.

Consider `CC(=O)Nc1cccc(C(=O)Nc2cnc3n2CCCC3)c1`, for which the cytotoxicity at 70.5 h was -5.75%.

`COCCn1cc2c(n1)C(CNCc1nccs1)OCC2` (centres undefined): the cytotoxicity at 70.5 h was -2.52%.

With `CCSc1ccc(NC(=O)NC2CCc3[nH]ncc3C2)cn1` (centres undefined), the cytotoxicity at 70.5 h was -4.32%.

In the case of `CCS(=O)(=O)N1CCc2c(COCCN(C)C)cncc2C1`, the cytotoxicity at 70.5 h was 2.79%.

`O=C(N[C@@H]1CCNC[C@H]1O)c1ccc(F)c(Cl)c1`: the cytotoxicity at 70.5 h was -7.9%.

Turning to `CCN1CCN(C(=O)NC(C)c2noc(-c3ccccc3)n2)CC1` (centres undefined), the cytotoxicity at 70.5 h is -6.34%.

`COc1ccccc1OCCNC(=O)NCC(C)C`: the cytotoxicity at 70.5 h was -12.4%.

As for `CO[C@@H]1CCN(C(=O)c2cnoc2C)[C@H]1Cc1ccccc1`, the cytotoxicity at 70.5 h came to 2.59%.

Turning to `COCc1cccc(C(=O)N2CCCC2)c1`, the cytotoxicity at 70.5 h turned out to be 4.08%.

Regarding `CC(C)n1nc(CNc2ncccn2)c2c1CN(C1CCOCC1)CC2`, the cytotoxicity at 70.5 h was -17.3%.

Regarding `CN1CCO[C@@H]2CN(S(=O)(=O)c3cccnc3)C[C@@H]2C1`, the cytotoxicity at 70.5 h came to 2.04%.

Consider `Cc1ccccc1C1(C(=O)NCCN2CCCC2)CCOCC1`, for which the cytotoxicity at 70.5 h is -13.9%.

As to `CCc1nc(CNC(=O)Nc2nc(COC)cs2)cs1`, the cytotoxicity at 70.5 h is -5.86%.

As for `CCN(CC)S(=O)(=O)c1ccc(C(F)(F)F)cc1C#N`, the cytotoxicity at 70.5 h was -8.21%.

Consider `O=C(NCCc1ccccc1)N1C[C@H]2C[C@H](C(=O)N3CCCC3)[C@@H](C1)O2`, for which the cytotoxicity at 70.5 h stood at 0.399%.

Take `Cc1cnn(C2CCCN(C(=O)CN(C)c3cnccn3)C2)c1` (centres undefined): the cytotoxicity at 70.5 h was -2.8%.

Consider `COCCCn1cnnc1CNC(=O)c1[nH]c2c(C)cc(C)cc2c1C`, for which the cytotoxicity at 70.5 h is -6.04%.

As for `O=C(NCc1cccs1)[C@@H]1CC[C@@H]2[C@@H](CCN2C2CCOCC2)O1`, the cytotoxicity at 70.5 h is -14.8%.

`O=C(CCn1cc(Cl)cn1)N1CCCC(O)(CO)CC1` (centres undefined): the cytotoxicity at 70.5 h was -4.26%.

As to `Cc1ccoc1C(=O)NCc1ccnc(OCC(F)(F)F)c1`, the cytotoxicity at 70.5 h was -3.36%.

With `COCCCN(C)C(=O)Cn1cccc(OC)c1=O`, the cytotoxicity at 70.5 h is -10.6%.

Take `Cc1ccc(CN2CCN(c3nc4c(s3)c(C)nn4C)C(C)C2=O)cc1` (centres undefined): the cytotoxicity at 70.5 h was 31.2%.

Turning to `COc1cccc(OCc2cc(C(=O)NC[C@@H]3CCCN3)n[nH]2)c1`, the cytotoxicity at 70.5 h turned out to be 0.523%.

Turning to `CS(=O)(=O)NC[C@H]1OC[C@@H]2CCN(Cc3ccc(F)cc3)C[C@@H]21`, the cytotoxicity at 70.5 h turned out to be 16.9%.

In the case of `Cc1[nH]ncc1CCCNC(=O)Nc1ccc2c(c1)OC1(CCCC1)O2`, the cytotoxicity at 70.5 h is -2.92%.

Take `COc1ccccc1C1(CNc2ccc(C(=O)N(C)C)cn2)CC1`: the cytotoxicity at 70.5 h worked out at 25.8%.

Regarding `Cc1cccc(Cc2nc3c([nH]2)CCCNC3=O)c1`, the cytotoxicity at 70.5 h was -5.33%.

With `O=C(c1cscn1)N1CC[C@H]2[C@@H]1CCC(=O)N2c1ccccc1`, the cytotoxicity at 70.5 h amounted to 1.24%.

Take `CC1(C)CCC(C(=O)O)c2ccccc21` (centres undefined): the cytotoxicity at 70.5 h was -8.46%.

Turning to `Cc1cc2cc(C(=O)N[C@@H]3CC[C@@H](N4CCOCC4)[C@@H]3O)ccc2o1`, the cytotoxicity at 70.5 h amounted to 24.8%.

Regarding `Cn1cncc1CN1CCC2(CC1)COCCN(S(C)(=O)=O)C2`, the cytotoxicity at 70.5 h was -8.74%.

The record behind these values is ChEMBL document CHEMBL3507680, “University of Dundee, Gates Library screen for HepG2 cell viability”.
